Experimental findings from patent US9120785B2, “Pyridyl aminopyridines as Syk inhibitors” (Merck Sharp & Dohme Corp., priority 2011, dated 2015) are described below.

Molecules are shown by their SMILES. A value given as a limit tells only on which side of the number the result lay.

In this assay the target is recombinant human GST-Syk (Homo sapiens (Human), UniProt P43405). Put plainly: Homogeneous Time-Resolved Fluorescence (HTRF) assay for the recombinant human Syk enzyme. The format is biochemical. As to conditions: recombinant human GST-Syk 5 pM, ATP 25 μM; class symbols; read-out: rhSyk activity (IC50). The essentials: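 GST-hSyk (5 pM final) preincubated 10 min at room temperature with inhibitor (0.1% DMSO) in 15 mM Tris-HCl pH 7.5, 0.01% Tween 20, 2 mM DTT. Reaction with 250 nM biotinylated peptide, 5 mM Mg, 25 μM ATP for 45 min, room temperature. Quenched with EDTA; Eu-anti-phosphotyrosine/SA-APC HTRF read after 30 min.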
(In general: TR-FRET usually uses a lanthanide donor and a delayed reading to cut background.)
For orientation: IC50 means the midpoint of a concentration-inhibition curve. Take `Cc1cc(Nc2cc(C(F)(F)F)ccn2)nc(-c2cnc(C(C)(O)C3CCC(C(=O)O)C(C)C3)s2)c1` (single isomer, unassigned) [Example 15-6, 4-{1-hydroxy-1-[5-(4-methyl-6-{[4-(trifluoromethyl)pyridin-2-yl]amino}pyridin-2-yl)-1,3-thiazol-2-yl]ethyl}-2-methylcyclohexanecarboxylic acid]: the IC50 was not above 100 nM. The value for `Cc1cc(Nc2cc(C(F)(F)F)ccn2)nc(-c2cnc(C(C)(O)C3CCC(C(=O)O)C(C)C3)s2)c1` (single isomer, unassigned) [Example 15-7, 4-{1-hydroxy-1-[5-(4-methyl-6-{[4-(trifluoromethyl)pyridin-2-yl]amino}pyridin-2-yl)-1,3-thiazol-2-yl]ethyl}-2-methylcyclohexanecarboxylic acid] was not above 100 nM.

Consider `Cc1cc(Nc2cc(C(F)(F)F)ccn2)nc(-c2cnc(C(C)(O)C3CCC(C(=O)O)C(C)C3)s2)c1` (single isomer, unassigned) [Example 15-8, 4-{1-hydroxy-1-[5-(4-methyl-6-{[4-(trifluoromethyl)pyridin-2-yl]amino}pyridin-2-yl)-1,3-thiazol-2-yl]ethyl}-2-methylcyclohexanecarboxylic acid], for which the IC50 is not above 100 nM. The value for `Cc1cc(Nc2cc(C(F)(F)F)ccn2)nc(-c2cnc(C(C)(O)C3CCC(C(=O)O)C(C)C3)s2)c1` (single isomer, unassigned) [Example 15-9, 4-{1-hydroxy-1-[5-(4-methyl-6-{[4-(trifluoromethyl)pyridin-2-yl]amino}pyridin-2-yl)-1,3-thiazol-2-yl]ethyl}-2-methylcyclohexanecarboxylic acid] was not above 100 nM; that for `Cc1cc(Nc2cc(C(F)(F)F)ccn2)nc(-c2cnc(C(C)(O)C3CCC(C(=O)O)C(C)C3)s2)c1` (single isomer, unassigned) [Example 15-10, 4-{1-hydroxy-1-[5-(4-methyl-6-{[4-(trifluoromethyl)pyridin-2-yl]amino}pyridin-2-yl)-1,3-thiazol-2-yl]ethyl}-2-methylcyclohexanecarboxylic acid] was not above 100 nM; that for `Cc1cc(Nc2cc(C(F)(F)F)ccn2)nc(-c2cnc(C(C)(O)C3CCC(C(=O)O)C(C)C3)s2)c1` (single isomer, unassigned) [Example 15-11, 4-{1-hydroxy-1-[5-(4-methyl-6-{[4-(trifluoromethyl)pyridin-2-yl]amino}pyridin-2-yl)-1,3-thiazol-2-yl]ethyl}-2-methylcyclohexanecarboxylic acid] was not above 100 nM. To `Cc1cc(Nc2cc(C(F)(F)F)ccn2)nc(-c2cnc(C(C)(O)C3CCC(C(=O)O)C(C)C3)s2)c1` (single isomer, unassigned) [Example 15-12, 4-{1-hydroxy-1-[5-(4-methyl-6-{[4-(trifluoromethyl)pyridin-2-yl]amino}pyridin-2-yl)-1,3-thiazol-2-yl]ethyl}-2-methylcyclohexanecarboxylic acid] belongs not above 100 nM. To `Cc1cc(Nc2cc(C(F)(F)F)ccn2)nc(-c2cnc(C(C)(O)C3CCC(C(=O)O)C(C)C3)s2)c1` (single isomer, unassigned) [Example 15-13, 4-{1-hydroxy-1-[5-(4-methyl-6-{[4-(trifluoromethyl)pyridin-2-yl]amino}pyridin-2-yl)-1,3-thiazol-2-yl]ethyl}-2-methylcyclohexanecarboxylic acid] belongs not above 100 nM; to `Cc1cc(Nc2cc(C(F)(F)F)ccn2)nc(-c2cnc(C(C)(O)C3CCNC3)s2)c1` (stereo not shown) [Example 12, 1-[5-(4-Methyl-6-{[4-(trifluoromethyl)pyridin-2-yl]amino}pyridin-2-yl)-1,3-thiazol-2-yl]-1-(pyrrolidin-3-yl)ethanol], not above 100 nM. For the compound `Cc1cc(Nc2cc(C(F)(F)F)ccn2)nc(-c2cnc(C(C)(O)C3CCN(C(N)=O)C3)s2)c1` (stereo not shown) [Example 13, 3-{1-Hydroxy-1-[5-(4-methyl-6-{[4-(trifluoromethyl)pyridin-2-yl]amino}pyridin-2-yl)-1,3-thiazol-2-yl]ethyl}pyrrolidine-1-carboxamide], the IC50 is not above 100 nM. Turning to `Cc1cc(Nc2cc(C(F)(F)F)ccn2)nc(-c2cnc(C(C)(O)[C@@H]3CC[C@H](C(=O)O)C(C)(C)C3)s2)c1` (stereo partly drawn) [Example 14-30, (1S,4R)-4-{1-hydroxy-1-[5-(4-methyl-6-{[4-(trifluoromethyl)pyridin-2-yl]amino}pyridin-2-yl)-1,3-thiazol-2-yl]ethyl}-2,2-dimethylcyclohexanecarboxylic acid], the IC50 was not above 100 nM. With `Cc1cc(Nc2cc(C(F)(F)F)ccn2)nc(-c2cnc(C(C)(O)[C@H]3CC[C@H](C(=O)O)C(C)(C)C3)s2)c1` (stereo partly drawn) [Example 14-31, (1S,4S)-4-{1-hydroxy-1-[5-(4-methyl-6-{[4-(trifluoromethyl)pyridin-2-yl]amino}pyridin-2-yl)-1,3-thiazol-2-yl]ethyl}-2,2-dimethylcyclohexanecarboxylic acid], the IC50 was not above 100 nM.

`Cc1cc(Nc2cc(C(F)(F)F)ccn2)nc(-c2cnc(C(C)(O)[C@H]3CC[C@H](C(=O)O)C(C)(C)C3)s2)c1` (stereo partly drawn) [Example 14-32, (1S,4S)-4-{1-hydroxy-1-[5-(4-methyl-6-{[4-(trifluoromethyl)pyridin-2-yl]amino}pyridin-2-yl)-1,3-thiazol-2-yl]ethyl}-2,2-dimethylcyclohexanecarboxylic acid]: the IC50 was not above 100 nM. To `Cc1ccnc(Nc2cc(C)cc(-c3cnc(C(C)(O)[C@H]4CC[C@H](C(=O)O)C(C)(C)C4)s3)n2)c1` (stereo partly drawn) [Example 14-33, (1S,4S)-4-[1-hydroxy-1-(5-{4-methyl-6-[(4-methylpyridin-2-yl)amino]pyridin-2-yl}-1,3-thiazol-2-yl)ethyl]-2,2-dimethylcyclohexanecarboxylic acid] belongs not above 100 nM; to `Cc1ccnc(Nc2cc(C)cc(-c3cnc(C(C)(O)[C@H]4CC[C@H](C(=O)O)C(C)(C)C4)s3)n2)c1` (stereo partly drawn) [Example 14-34, (1S,4S)-4-[1-hydroxy-1-(5-{4-methyl-6-[(4-methylpyridin-2-yl)amino]pyridin-2-yl}-1,3-thiazol-2-yl)ethyl]-2,2-dimethylcyclohexanecarboxylic acid], not above 100 nM; to `COc1ccnc(Nc2cc(C)cc(-c3cnc(C(C)(O)[C@H]4CC[C@H](C(=O)O)C(C)(C)C4)s3)n2)c1` (stereo partly drawn) [Example 14-35, (1S,4S)-4-[1-hydroxy-1-(5-{6-[(4-methoxypyridin-2-yl)amino]-4-methylpyridin-2-yl}-1,3-thiazol-2-yl)ethyl]-2,2-dimethylcyclohexanecarboxylic acid], not above 100 nM. To `COc1ccnc(Nc2cc(C)cc(-c3cnc(C(C)(O)[C@H]4CC[C@H](C(=O)O)C(C)(C)C4)s3)n2)c1` (stereo partly drawn) [Example 14-36, (1S,4S)-4-[1-hydroxy-1-(5-{6-[(4-methoxypyridin-2-yl)amino]-4-methylpyridin-2-yl}-1,3-thiazol-2-yl)ethyl]-2,2-dimethylcyclohexanecarboxylic acid] belongs not above 100 nM; to `Cc1cc(Nc2cc(C(F)F)ccn2)nc(-c2cnc(C(C)(O)[C@H]3CC[C@H](C(=O)O)C(C)(C)C3)s2)c1` (stereo partly drawn) [Example 14-37, (1S,4S)-4-{1-[5-(6-{[4-(difluoromethyl)pyridin-2-yl]amino}-4-methylpyridin-2-yl)-1,3-thiazol-2-yl]-1-hydroxyethyl}-2,2-dimethylcyclohexanecarboxylic acid], not above 100 nM; to `Cc1cc(Nc2cc(C(F)F)ccn2)nc(-c2cnc(C(C)(O)[C@H]3CC[C@H](C(=O)O)C(C)(C)C3)s2)c1` (stereo partly drawn) [Example 14-38, (1S,4S)-4-{1-[5-(6-{[4-(difluoromethyl)pyridin-2-yl]amino}-4-methylpyridin-2-yl)-1,3-thiazol-2-yl]-1-hydroxyethyl}-2,2-dimethylcyclohexanecarboxylic acid], not above 100 nM. Take `CC1(C)C[C@@H](C(C)(O)c2ncc(-c3cccc(Nc4cc(C(F)(F)F)ccn4)n3)s2)CC[C@@H]1C(=O)O` (stereo partly drawn) [Example 14-44, (1S,4S)-4-{1-hydroxy-1-[5-(6-{[4-(trifluoromethyl)pyridin-2-yl]amino}pyridin-2-yl)-1,3-thiazol-2-yl]ethyl}-2,2-dimethylcyclohexanecarboxylic acid]: the IC50 is not above 100 nM. To `CC1(C)C[C@@H](C(C)(O)c2ncc(-c3cccc(Nc4cc(C(F)(F)F)ccn4)n3)s2)CC[C@@H]1C(=O)O` (stereo partly drawn) [Example 14-45, (1S,4S)-4-{1-hydroxy-1-[5-(6-{[4-(trifluoromethyl)pyridin-2-yl]amino}pyridin-2-yl)-1,3-thiazol-2-yl]ethyl}-2,2-dimethylcyclohexanecarboxylic acid] belongs not above 100 nM; to `Cc1ccnc(Nc2cccc(-c3cnc(C(C)(O)[C@H]4CC[C@H](C(=O)O)C(C)(C)C4)s3)n2)c1` (stereo partly drawn) [Example 14-46, (1S,4S)-4-[1-hydroxy-1-(5-{6-[(4-methylpyridin-2-yl)amino]pyridin-2-yl}-1,3-thiazol-2-yl)ethyl]-2,2-dimethylcyclohexanecarboxylic acid], not above 100 nM; to `Cc1ccnc(Nc2cccc(-c3cnc(C(C)(O)[C@H]4CC[C@H](C(=O)O)C(C)(C)C4)s3)n2)c1` (stereo partly drawn) [Example 14-47, (1S,4S)-4-[1-hydroxy-1-(5-{6-[(4-methylpyridin-2-yl)amino]pyridin-2-yl}-1,3-thiazol-2-yl)ethyl]-2,2-dimethylcyclohexanecarboxylic acid], not above 100 nM. On to `COc1ccnc(Nc2cccc(-c3cnc(C(C)(O)[C@H]4CC[C@H](C(=O)O)C(C)(C)C4)s3)n2)c1` (stereo partly drawn) [Example 14-48, (1S,4S)-4-[1-hydroxy-1-(5-{6-[(4-methoxypyridin-2-yl)amino]pyridin-2-yl}-1,3-thiazol-2-yl)ethyl]-2,2-dimethylcyclohexanecarboxylic acid], for which the IC50 is not above 100 nM. The value for `COc1ccnc(Nc2cccc(-c3cnc(C(C)(O)[C@H]4CC[C@H](C(=O)O)C(C)(C)C4)s3)n2)c1` (stereo partly drawn) [Example 14-49, (1S,4S)-4-[1-hydroxy-1-(5-{6-[(4-methoxypyridin-2-yl)amino]pyridin-2-yl}-1,3-thiazol-2-yl)ethyl]-2,2-dimethylcyclohexanecarboxylic acid] was not above 100 nM.
